Data as given in patent US8889876B2, “Histone deacetylase inhibitors and uses thereof” (Jiangsu Hengyi Pharmaceutical Co., Ltd., priority 2008, dated 2014).

Key:
Assay type in all cases: cell-based
[1] = tested on: A549 human lung cancer cells; experiment: CCK-8 proliferation inhibition, A549; conditions: CCK-8 method; for inhibition at 10 µM / inhibition at 100 µM: Homo sapiens, A549
Method: (§1) Detecting the inhibition rate of the compound concentrations of 100 μM and 10 μM to Hut78 T-cell Leukemia cell, Jurkat E6-1 human T-cell lymphoma, PANC-1 human pancreatic cancer cells, A549 human lung cancer cells, K562 human chronic myeloid leukemia cells, Hep3B2.1-7 human liver cancer cells, MDA-MB-435s human breast cancer cells, Colo320 human rectal cancer cells and PC-3 human prostate cancer using CCK-8 method.

[2] = tested on: PC-3 human prostate cancer; experiment: CCK-8 proliferation inhibition, PC-3; conditions: CCK-8 method; for inhibition at 10 µM / inhibition at 100 µM: Homo sapiens
Method: as §1

[3] = tested on: PANC-1 human pancreatic cancer cells; experiment: CCK-8 proliferation inhibition, PANC-1; conditions: for inhibition at 10 µM / inhibition at 100 µM: Homo sapiens; for inhibition at 10 µM: PANC-1, 10 μM; for inhibition at 100 µM: PANC-1, 100 μM
Method: as §1

[4] = tested on: MDA-MB-435s human breast cancer cells; experiment: CCK-8 proliferation inhibition, MDA-MB-435s; conditions: CCK-8 method; for inhibition at 10 µM / inhibition at 100 µM: Homo sapiens, MDA-MB-435S
Method: as §1

[5] = tested on: Hep3B2.1-7 human liver cancer cells; experiment: CCK-8 proliferation inhibition, Hep3B2.1-7; conditions: CCK-8 method; for inhibition at 10 µM / inhibition at 100 µM: Homo sapiens, Hep3B
Method: as §1

[6] = tested on: Jurkat E6-1 human T-cell lymphoma; experiment: CCK-8 proliferation inhibition, Jurkat E6-1; conditions: for inhibition at 10 µM / inhibition at 100 µM: Homo sapiens; for inhibition at 10 µM: Jurkat E6.1, 10 μM; for inhibition at 100 µM: Jurkat E6.1, 100 μM
Method: as §1

[7] = tested on: Colo320 human rectal cancer cells; experiment: CCK-8 proliferation inhibition, Colo320; conditions: CCK-8 method; for inhibition at 10 µM / inhibition at 100 µM: Homo sapiens, COLO 320
Method: as §1

[8] = tested on: Hut78 T-cell Leukemia cell; experiment: CCK-8 proliferation inhibition, Hut78; conditions: for inhibition at 10 µM / inhibition at 100 µM: Homo sapiens, read-out: Hut-78 (inhibition %); for inhibition at 10 µM: HuT78, 10 μM; for inhibition at 100 µM: HuT78, 100 μM
Method: as §1

[9] = tested on: K562 human chronic myeloid leukemia cells; experiment: CCK-8 proliferation inhibition, K562; conditions: for inhibition at 10 µM / inhibition at 100 µM: Homo sapiens; for inhibition at 10 µM: K562, 10 μM; for inhibition at 100 µM: K562, 100 μM
Method: as §1

Row | Compound | inhibition at 10 µM ([1]; compound concentration 10 μM) [%] | inhibition at 100 µM ([1]; compound concentration 100 μM) [%] | inhibition at 10 µM ([2]; compound concentration 10 μM) [%] | inhibition at 100 µM ([2]; compound concentration 100 μM) [%] | inhibition at 10 µM [3] [%] | inhibition at 100 µM [3] [%] | inhibition at 10 µM ([4]; compound concentration 10 μM) [%] | inhibition at 100 µM ([4]; compound concentration 100 μM) [%] | inhibition at 10 µM ([5]; compound concentration 10 μM) [%] | inhibition at 100 µM ([5]; compound concentration 100 μM) [%] | inhibition at 10 µM [6] [%] | inhibition at 100 µM [6] [%] | inhibition at 10 µM ([7]; compound concentration 10 μM) [%] | inhibition at 100 µM ([7]; compound concentration 100 μM) [%] | inhibition at 10 µM [8] [%] | inhibition at 100 µM [8] [%] | inhibition at 10 µM [9] [%] | inhibition at 100 µM [9] [%] | A549 (inhibition %) ([1]; compound concentration 10 μM) [%] | A549 (inhibition %) ([1]; compound concentration 100 μM) [%] | also measured
1 | Cc1ccc(CCC(=O)NCc2ccc(C(=O)Nc3ccncc3N)cc2)cc1 [V-51] | -8.9 | -3.2 | 21.4 | 45 | 1.4 | -6.1 | 14.1 | 31.3 | 24.9 | 26.9 | 14.8 | 42.4 | -5.7 | 7.9 | -0.5 | 35.2 | -2.4 | 53.5 | – | – | –
2 | COc1ccc(CCC(=O)NCc2ccc(C(=O)Nc3cccnc3N)cc2)cc1 [V-52, N-(2-amino-3-pyridyl)-4-[3-(4-methoxyphenyl)propionylaminomethyl]benzamide] | 9.8 | 9.9 | -7.4 | 24.7 | 13.3 | 17.7 | 13.9 | 22.8 | 19 | 78.6 | 7.6 | 73.8 | 8 | 17.7 | 6.5 | 50.8 | 29 | 67.3 | – | – | –
3 | COc1cc(CCC(=O)NCc2ccc(C(=O)Nc3ccnc(N)c3)cc2)cc(OC)c1OC [V-55, N-(2-amino-4-pyridyl)-4-[3-(3,4,5-methoxyphenyl)propionylaminomethyl]benzamide] | – | – | – | – | – | – | – | – | – | – | – | – | – | – | – | – | – | – | −16.5 | −15.3 | PC-3 (inhibition %) ([2]; compound concentration 10 μM): 13.3%; PC-3 (inhibition %) ([2]; compound concentration 100 μM): 10.9%; PANC-1 (inhibition %) ([3]; 10 μM): −7.5%; PANC-1 (inhibition %) ([3]; 100 μM): −6.1%; 435s(inhibition %) ([4]; compound concentration 10 μM): 6.5%; 435s(inhibition %) ([4]; compound concentration 100 μM): 4.9%; Hep3B (inhibition %) ([5]; compound concentration 10 μM): 21.7%; Hep3B (inhibition %) ([5]; compound concentration 100 μM): 7.2%; Jurkat E6-1 (inhibition %) ([6]; 10 μM): 10.6%; Jurkat E6-1 (inhibition %) ([6]; 100 μM): 0.6%; Colo320 (inhibition %) ([7]; compound concentration 10 μM): −11.2%; Colo320 (inhibition %) ([7]; compound concentration 100 μM): −2.8%; Hut-78 (inhibition %) ([8]; 10 μM): −5.5%; Hut-78 (inhibition %) ([8]; 100 μM): −2.4%; K562 (inhibition %) ([9]; 10 μM): −12.8%; K562 (inhibition %) ([9]; 100 μM): −17.4%
4 | Nc1ncccc1NC(=O)c1ccc(CNC(=O)CCc2ccc(F)cc2)cc1 [V-60, N-(2-amino-3-pyridyl)-4-[3-(4-fluorophenyl)propionylaminomethyl]benzamide] | 3.7 | 12.2 | 1 | 8.1 | 27.3 | 26.1 | -7.8 | -3.4 | 9.9 | 31.7 | 11 | 33.3 | -5.4 | 2.3 | 11.8 | 28.5 | 14.6 | 42.7 | – | – | –
5 | COc1ccc(/C=C/C(=O)NCc2ccc(C(=O)Nc3ccncc3N)cc2)cc1OC [V-94] | 9.1 | 58.4 | 54.2 | 87.8 | 6 | 27.3 | 15.1 | 77 | 4.5 | 69.4 | 65.6 | 95.6 | -6.4 | 17.8 | 12.9 | 66.7 | 35 | 85.7 | – | – | –
6 | N-(2-amino-3-pyridyl)-4-[(2-naphthylmethoxyacyl)aminomethyl)benzamide [V-23] | – | – | – | – | – | – | – | – | – | – | – | – | – | – | – | – | – | – | 4.7 | 3.5 | PC-3 (inhibition %) ([2]; compound concentration 10 μM): 10.9%; PC-3 (inhibition %) ([2]; compound concentration 100 μM): 8.6%; PANC-1 (inhibition %) ([3]; 10 μM): 7.2%; PANC-1 (inhibition %) ([3]; 100 μM): 0.5%; 435s(inhibition %) ([4]; compound concentration 10 μM): 21.6%; 435s(inhibition %) ([4]; compound concentration 100 μM): 21.0%; Hep3B (inhibition %) ([5]; compound concentration 10 μM): 16.3%; Hep3B (inhibition %) ([5]; compound concentration 100 μM): 11.2%; Jurkat E6-1 (inhibition %) ([6]; 10 μM): 33.7%; Jurkat E6-1 (inhibition %) ([6]; 100 μM): 13.9%; Colo320 (inhibition %) ([7]; compound concentration 10 μM): 15.3%; Colo320 (inhibition %) ([7]; compound concentration 100 μM): 3.9%; Hut-78 (inhibition %) ([8]; 10 μM): 20.7%; Hut-78 (inhibition %) ([8]; 100 μM): 10.4%; K562 (inhibition %) ([9]; 10 μM): 27.2%; K562 (inhibition %) ([9]; 100 μM): 11.9%
